According to ChEMBL document CHEMBL1201862, “PubChem BioAssay data set” (2004):
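Interpolation was linear, between the two tested concentrations surrounding the appropriate level; five concentrations were tested over 48 hours in 96-well plates. At the GI50, growth is halved.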 Activity calls are given as the source filed them. No stated cut-off is given here; in the data, active = GI50 up to about 1.1 µM and inactive = higher.

Experiments:
Assay in all cases: NCI-60 cell line screen, 48 h
[1] = tested on: ACHN
[2] = tested on: SF-295
[3] = tested on: U-251
[4] = tested on: CCRF-CEM
[5] = tested on: HCC 2998
[6] = tested on: 786-0
[7] = tested on: HL-60
[8] = tested on: SK-MEL-2
[9] = tested on: HCT-15
[10] = tested on: NCI-H522
[11] = tested on: KM12
[12] = tested on: NCI-H460
[13] = tested on: OVCAR-8
[14] = tested on: SF-539
[15] = tested on: CAKI-1
[16] = tested on: SK-MEL-5
[17] = tested on: LOX IMVI
[18] = tested on: OVCAR-5
[19] = tested on: NCI-H23
[20] = tested on: DU-145

Structure (SMILES)	GI50 [1]	GI50 [2]	GI50 [3]	GI50 [4]	GI50 [5]	GI50 [6]	GI50 [7]	GI50 [8]	GI50 [9] [µM]	GI50 [10]	GI50 [11]	GI50 [12]	GI50 [13]	GI50 [14]	GI50 [15]	GI50 [16]	GI50 [17]	GI50 [18]	GI50 [19]	GI50 [20]
O=C1NC(Cc2ccccc2)C(=O)N2CCCC12 (stereo unspecified)	> 100 µM (inactive)	> 100 µM (inactive)	> 100 µM (inactive)	> 100 µM (inactive)	> 100 µM (inactive)	> 100 µM (inactive)	> 100 µM (inactive)	> 100 µM (inactive)	> 100	> 100 µM (inactive)	> 100 µM (inactive)	> 100 µM (inactive)	> 100 µM (inactive)	> 100 µM (inactive)	> 100 µM (inactive)	> 100 µM (inactive)	> 100 µM (inactive)	> 100 µM (inactive)	–	–
COc1cccc(NC(=O)CC(=O)N2N=C(N(CCC#N)c3ccc(Cl)cc3)CC2c2ccccc2)c1 (stereo unspecified)	> 100 µM (inactive)	> 100 µM (inactive)	> 100 µM (inactive)	> 100 µM (inactive)	> 100 µM (inactive)	> 100 µM (inactive)	> 100 µM (inactive)	> 100 µM (inactive)	> 100	> 100 µM (inactive)	> 100 µM (inactive)	> 100 µM (inactive)	> 100 µM (inactive)	> 100 µM (inactive)	> 100 µM (inactive)	> 100 µM (inactive)	> 100 µM (inactive)	> 100 µM (inactive)	> 100 µM (inactive)	–
CCN1CCC(O)(c2ccc(Oc3ccc(F)cc3)cc2)C(C(=O)c2ccc(Oc3ccc(F)cc3)cc2)C1 (stereo unspecified)	13.8 µM (inactive)	15.7 µM (inactive)	16.2 µM (inactive)	10.1 µM (inactive)	11.4 µM (inactive)	11.6 µM (inactive)	–	17.2 µM (inactive)	11.5	–	4.42 µM (inactive)	–	15 µM (inactive)	18.5 µM (inactive)	13 µM (inactive)	–	11.8 µM (inactive)	15 µM (inactive)	14.8 µM (inactive)	12.2 µM (inactive)
CC(C)(C)OC(=O)NCCCCCCC(=O)Cc1ccccc1	> 100 µM (inactive)	> 100 µM (inactive)	> 100 µM (inactive)	> 100 µM (inactive)	> 100 µM (inactive)	> 100 µM (inactive)	–	> 100 µM (inactive)	> 100	> 100 µM (inactive)	> 100 µM (inactive)	> 100 µM (inactive)	> 100 µM (inactive)	–	> 100 µM (inactive)	60.8 µM (inactive)	> 100 µM (inactive)	> 100 µM (inactive)	> 100 µM (inactive)	> 100 µM (inactive)
Cn1c(CCC#N)nc2ccc(Br)cc2c1=O	> 100 µM (inactive)	> 100 µM (inactive)	> 100 µM (inactive)	51.9 µM (inactive)	> 100 µM (inactive)	> 100 µM (inactive)	> 100 µM (inactive)	> 100 µM (inactive)	> 100	> 100 µM (inactive)	> 100 µM (inactive)	> 100 µM (inactive)	> 100 µM (inactive)	> 100 µM (inactive)	> 100 µM (inactive)	> 100 µM (inactive)	> 100 µM (inactive)	> 100 µM (inactive)	41.7 µM (inactive)	–
C[n+]1c2ccccc2c(CNc2ccc(S(=O)(=O)N=C(N)N)cc2)c2ccccc21	6.95 µM (inactive)	3.6 µM (inactive)	5.14 µM (inactive)	1.45 µM (inactive)	15.1 µM (inactive)	6.84 µM (inactive)	1.46 µM (inactive)	24.8 µM (inactive)	10.2	9.77 µM (inactive)	13.2 µM (inactive)	0.61 µM (active)	9.66 µM (inactive)	3.24 µM (inactive)	1.72 µM (inactive)	6.92 µM (inactive)	3.29 µM (inactive)	43.7 µM (inactive)	5.31 µM (inactive)	–
C[N+]12C=CC=C1C(N1CCCC1)c1scc(-c3ccccc3)c12 (stereo unspecified)	–	44.3 µM (inactive)	5.92 µM (inactive)	22.4 µM (inactive)	–	47.4 µM (inactive)	–	6.78 µM (inactive)	–	3.28 µM (inactive)	8.55 µM (inactive)	–	22.5 µM (inactive)	–	> 100 µM (inactive)	11.9 µM (inactive)	37.4 µM (inactive)	64.1 µM (inactive)	–	52.2 µM (inactive)
COc1cc(/C=C(\C#N)C(=O)c2ccccc2)cc(OC)c1OC	> 100 µM (inactive)	> 100 µM (inactive)	> 100 µM (inactive)	> 100 µM (inactive)	> 100 µM (inactive)	> 100 µM (inactive)	> 100 µM (inactive)	> 100 µM (inactive)	> 100	> 100 µM (inactive)	> 100 µM (inactive)	> 100 µM (inactive)	> 100 µM (inactive)	> 100 µM (inactive)	> 100 µM (inactive)	> 100 µM (inactive)	> 100 µM (inactive)	> 100 µM (inactive)	> 100 µM (inactive)	–
